Tests used:
NLRP3 inflammasome = molecular target: T1, NLRP3 inflammasome (Homo sapiens, UniProt Q96P20); assay: THP-1 IL-1β production inhibition test; type: cell-based; conditions: PMA-treated THP-1 cells, LPS 50 ng/mL + ATP 5 mM, 2 hours, IL-1β in supernatant by ELISA
T1 construct: endogenous in cells; host or cells: THP-1 cells (PMA-differentiated, stimulated with LPS and ATP)
Outline: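 THP-1 cells differentiated with PMA 50 ng/mL for 2 days, then stimulated with LPS 50 ng/mL and ATP 5 mM (final) for 2 h at 37 °C. Supernatant IL-1β measured by ELISA; IC50 from sigmoid Emax nonlinear regression against log compound concentration.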

[1] = tested on: TNF-α production in THP-1 cells; assay: TNF-α production inhibition test; type: cell-based; conditions: Homo sapiens; PMA-treated THP-1 cells, LPS 50 ng/mL, 2 hours, TNF-α in supernatant by ELISA
Experimental: PMA (phorbol myristate acetate, SIGMA, P1585) was added to THP-1 cells in an amount of 50 ng/mL to culture the cells for 2 days at 37° C. The culture medium was replaced with a serum-free RPMI-1640 medium, and a compound with a known concentration was added thereto to culture the cells at 37° C. for 15 minutes. LPS (Lipopolysaccharide SIMGA, L2880) was added so that each final concentration becomes 50 ng/mL, followed by culturing at 37° C. for 2 hours. The supernatants were collected to measure the concentration of TNF-α by ELISA (DuoSet ELISA human TNF-α, R&D Systems, DY210). The TNF-α concentrations were plotted against log concentrations of test compounds, and an IC50 value was calculated by sigmoid Emax model nonlinear regression analysis.

IL-1β p17 = assay: Rat central nervous system IL-1β production test; type: in vivo; conditions: Wistar rat, oral, cerebrospinal fluid, LPS + BzATP in cisterna magna, read-out: percent inhibition of IL-1β p17 relative to the solvent-treated group
Experimental: Under isoflurane anesthesia, 10 to 14 weeks-old male Wistar rats were administered with 12.5 μg/5 μL of LPS (SIGMA, L2880) in the cisterna magna, followed by an oral administration of the test compound 2 hours later. After an additional hour, 50 μg/5 μL of BzATP(2′(3′)-O-(4-benzoylbenzoyl)adenosine 5′-triphosphate triethylammonium salt, SIGMA, B6396) was administered into the cisterna magna, and cerebrospinal fluid was collected after 30 minutes. The cerebrospinal fluid was subjected to Western blotting using an anti-IL-1β antibody (Millipore, AB1832P) to quantify IL-1β p17, and the percent inhibition relative to the solvent-treated group was calculated.
The percent inhibition of IL-1β p17 for Examples 1, 2(1), 3(1) and 124, which are compounds of formula (I), relative to the solvent-treated group is shown in the following table. In the table, Dose refers to the dosage of test compounds; Ex1, Ex2(1), Ex3(1), and Ex124 refer to Example 1, Example 2(1), Example 3(1); and Example 124; and “NT” denotes the unmeasured case.

3T3 = assay: In vitro phototoxicity test (3T3 NRU); type: cell-based; conditions: In vitro 3T3 NRU Phototoxicity Test, OECD 432, ICH S10
From the text: The evaluation of in vitro phototoxicity tests was based on ICH S10: Guidelines for Evaluation of Photosafety of Drugs (Notification No. 0521-1) using a method described in OECD Guidelines for the Testing of Chemicals 432: In vitro 3T3 NRU Phototoxicity Test, 2019).

hERG channel = hERG channel (Homo sapiens, UniProt Q12809); assay: Safety pharmacology test: hERG channel inhibitory effect; type: biochemical; conditions: human Ether-a-go-go Related Gene channel
Experimental: For the safety pharmacology test, evaluation of a human Ether-a-go-go Related Gene (hereinafter referred to as hERG) channel inhibitory effect was carried out. The hERG channel inhibitory effect was evaluated using a modified method described in Combinatorial Chemistry & High Throughput Screening, 12, 1, 78-95 (2009).

Chain of hERG channel (Q12809 whole entry): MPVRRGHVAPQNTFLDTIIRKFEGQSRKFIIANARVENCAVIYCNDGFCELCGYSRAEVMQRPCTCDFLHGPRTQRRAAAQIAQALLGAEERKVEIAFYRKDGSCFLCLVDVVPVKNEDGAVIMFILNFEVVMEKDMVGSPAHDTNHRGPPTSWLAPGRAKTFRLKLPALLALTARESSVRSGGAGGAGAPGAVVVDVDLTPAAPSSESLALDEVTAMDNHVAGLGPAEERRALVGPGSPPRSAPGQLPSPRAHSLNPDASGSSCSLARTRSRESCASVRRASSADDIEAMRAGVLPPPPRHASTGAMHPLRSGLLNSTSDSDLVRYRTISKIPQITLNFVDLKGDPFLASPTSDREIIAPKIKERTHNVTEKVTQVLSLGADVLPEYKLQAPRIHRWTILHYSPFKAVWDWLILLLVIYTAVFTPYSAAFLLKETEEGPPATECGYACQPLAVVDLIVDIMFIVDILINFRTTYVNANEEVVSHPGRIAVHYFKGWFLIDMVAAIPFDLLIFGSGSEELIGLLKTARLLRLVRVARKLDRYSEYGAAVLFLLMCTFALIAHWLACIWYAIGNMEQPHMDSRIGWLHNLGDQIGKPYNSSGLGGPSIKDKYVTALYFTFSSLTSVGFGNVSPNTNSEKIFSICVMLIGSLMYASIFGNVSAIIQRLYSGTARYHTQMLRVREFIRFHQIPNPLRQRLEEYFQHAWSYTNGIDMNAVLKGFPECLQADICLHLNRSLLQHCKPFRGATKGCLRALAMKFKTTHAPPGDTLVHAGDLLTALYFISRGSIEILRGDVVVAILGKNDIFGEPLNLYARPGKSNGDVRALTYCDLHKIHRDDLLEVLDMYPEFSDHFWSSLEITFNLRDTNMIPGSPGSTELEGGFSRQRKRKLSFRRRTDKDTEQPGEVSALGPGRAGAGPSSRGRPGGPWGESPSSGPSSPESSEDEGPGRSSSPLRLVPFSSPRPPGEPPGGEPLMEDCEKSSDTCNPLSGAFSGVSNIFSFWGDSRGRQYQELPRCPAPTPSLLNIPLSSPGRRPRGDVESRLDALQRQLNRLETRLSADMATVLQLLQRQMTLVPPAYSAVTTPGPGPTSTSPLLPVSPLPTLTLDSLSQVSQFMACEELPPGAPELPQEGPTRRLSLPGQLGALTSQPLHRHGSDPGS
T1 sequence (Q96P20 whole entry): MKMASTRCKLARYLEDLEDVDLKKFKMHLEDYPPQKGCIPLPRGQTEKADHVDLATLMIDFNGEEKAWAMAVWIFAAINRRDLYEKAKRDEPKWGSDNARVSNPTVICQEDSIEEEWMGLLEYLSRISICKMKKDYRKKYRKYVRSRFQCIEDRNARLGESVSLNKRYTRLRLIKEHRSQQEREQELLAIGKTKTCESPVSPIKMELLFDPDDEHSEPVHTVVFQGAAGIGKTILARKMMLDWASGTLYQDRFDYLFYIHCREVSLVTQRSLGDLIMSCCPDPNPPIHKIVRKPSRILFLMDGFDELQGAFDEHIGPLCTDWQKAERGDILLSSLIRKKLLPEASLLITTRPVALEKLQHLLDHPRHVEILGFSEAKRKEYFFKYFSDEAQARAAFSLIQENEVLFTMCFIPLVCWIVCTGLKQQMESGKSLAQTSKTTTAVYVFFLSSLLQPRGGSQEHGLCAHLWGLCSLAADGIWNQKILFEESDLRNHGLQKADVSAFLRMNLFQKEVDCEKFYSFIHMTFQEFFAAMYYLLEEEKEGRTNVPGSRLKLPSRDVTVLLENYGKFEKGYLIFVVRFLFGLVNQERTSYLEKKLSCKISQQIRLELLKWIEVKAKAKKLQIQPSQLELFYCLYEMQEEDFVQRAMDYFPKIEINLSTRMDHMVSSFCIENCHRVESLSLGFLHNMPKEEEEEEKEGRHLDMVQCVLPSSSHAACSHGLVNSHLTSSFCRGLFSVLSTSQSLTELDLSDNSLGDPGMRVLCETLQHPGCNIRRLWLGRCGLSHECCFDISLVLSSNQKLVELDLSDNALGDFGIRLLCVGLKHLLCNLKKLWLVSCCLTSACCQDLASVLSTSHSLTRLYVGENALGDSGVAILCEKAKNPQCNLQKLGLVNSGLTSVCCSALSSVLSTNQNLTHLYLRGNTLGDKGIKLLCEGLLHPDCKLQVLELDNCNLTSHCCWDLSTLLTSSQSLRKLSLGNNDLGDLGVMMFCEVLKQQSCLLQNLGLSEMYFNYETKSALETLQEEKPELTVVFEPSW

Compound | IC50 (NLRP3 inflammasome) [nM] | IC50 [1] [nM] | inhibition at 0.1 mg/kg (IL-1β p17; Dose 0.1 mg/kg) [%] | inhibition at 0.3 mg/kg (IL-1β p17) [%] | inhibition at 1 mg/kg (IL-1β p17) [%] | phototoxic effect (3T3) | IC50 (hERG channel) [nM] | inhibition at 3 mg/kg (IL-1β p17) [%]
CN1CCC[C@@H](Nc2nnc(-c3ccc(OC(F)F)cc3O)c3c2COCC3)C1 [Example 124, 5-(difluoromethoxy)-2-(4-{[(3R)-1-methylpiperidin-3-yl]amino}-7,8-dihydro-5H-pyrano[3,4-d]pyridazin-1-yl)phenol] | 0.62 | ≥ 10000 | 55 | 49 | 96 | no phototoxic effect | ≥ 10000 | 
Oc1cc(C(F)(F)F)ccc1-c1nnc(N[C@@H]2CCCC[C@H]2O)c2c1CCOC2 [Example 2(1), 2-(4-{[(1R,2R)-2-hydroxycyclohexyl]amino}-7,8-dihydro-5H-pyrano[3,4-d]pyridazin-1-yl)-5-(trifluoromethyl)phenol] | 3.4 | ≥ 10000 |  | 81 | 75 | no phototoxic effect | ≥ 10000 | 88
Oc1cc(OC(F)(F)F)ccc1-c1nnc(N[C@@H]2CCCC[C@H]2O)c2c1CCOC2 [Example 3(1), 2-(4-{[(1R,2R)-2-hydroxycyclohexyl]amino}-7,8-dihydro-5H-pyrano[3,4-d]pyridazin-1-yl)-5-(trifluoromethoxy)phenol] | 2.2 | ≥ 10000 |  | 75 | 82 | no phototoxic effect | ≥ 10000 | 72
Oc1cc(C(F)(F)F)ccc1-c1nnc(N[C@@H]2CCCC[C@H]2O)c2c1CCCC2 [Example 1, 2-(4-{[(1R,2R)-2-hydroxycyclohexyl]amino}-5,6,7,8-tetrahydrophthalazin-1-yl)-5-(trifluoromethyl)phenol] | 10 | ≥ 10000 |  | -12 | 74 | no phototoxic effect | ≥ 10000 | 84
Oc1cc(OC(F)F)ccc1-c1nnc(N[C@@H]2CCCC[C@H]2O)c2c1CCOC2 [Example 88, 5-(difluoromethoxy)-2-(4-{[(1R,2R)-2-hydroxycyclohexyl]amino}-7,8-dihydro-5H-pyrano[3,4-d]pyridazin-1-yl)phenol] | 1.8 | ≥ 10000 |  |  |  |  |  | 
Oc1cc(OC(F)F)ccc1-c1nnc(N[C@@H]2CCCC[C@H]2O)c2c1CCCC2 [Example 83, 5-(difluoromethoxy)-2-(4-{[(1R,2R)-2-hydroxycyclohexyl]amino}-5,6,7,8-tetrahydrophthalazin-1-yl)phenol] | 4.8 | ≥ 10000 |  |  |  |  |  | 
Oc1cc(C(F)(F)F)ccc1-c1nnc(N[C@@H]2CCCC[C@H]2O)c2c1CSC2 [Example 111, 2-(4-{[(1R,2R)-2-hydroxycyclohexyl]amino}-5,7-dihydrothieno[3,4-d]pyridazin-1-yl)-5-(trifluoromethyl)phenol] | 2.9 | ≥ 10000 |  |  |  |  |  | 
